Test results from patent US8669072B2, “Oxadiazoline ligands for modulating the expression of exogenous genes via an ecdysone receptor complex” (Intrexon Corporation, priority 2003, dated 2014).
Where two headings read alike, the source gives them in different places.

Columns and labels:
[1] = target: T1, Bombyx mori EcR (VBE) (Bombyx mori, UniProt P49881); experiment: Z3 assay: β-galactosidase reporter gene induction in HEK-293 clone Z3 (CVBE / 6XEcRE LacZ); assay type: cell-based; settings: for fold induction at 33 µM: HEK293, 48 h, read-out: Fold Induction Average, Z3 assay; for Rel Max FI, Z3 assay: maximum fold induction relative to that of GS-E ligand
T1 construct: expressed in transfected cells; host or cells: Human HEK-293 cells, retrovirally infected, clone Z3
T1 sequence (P49881 86-606 limits assumed): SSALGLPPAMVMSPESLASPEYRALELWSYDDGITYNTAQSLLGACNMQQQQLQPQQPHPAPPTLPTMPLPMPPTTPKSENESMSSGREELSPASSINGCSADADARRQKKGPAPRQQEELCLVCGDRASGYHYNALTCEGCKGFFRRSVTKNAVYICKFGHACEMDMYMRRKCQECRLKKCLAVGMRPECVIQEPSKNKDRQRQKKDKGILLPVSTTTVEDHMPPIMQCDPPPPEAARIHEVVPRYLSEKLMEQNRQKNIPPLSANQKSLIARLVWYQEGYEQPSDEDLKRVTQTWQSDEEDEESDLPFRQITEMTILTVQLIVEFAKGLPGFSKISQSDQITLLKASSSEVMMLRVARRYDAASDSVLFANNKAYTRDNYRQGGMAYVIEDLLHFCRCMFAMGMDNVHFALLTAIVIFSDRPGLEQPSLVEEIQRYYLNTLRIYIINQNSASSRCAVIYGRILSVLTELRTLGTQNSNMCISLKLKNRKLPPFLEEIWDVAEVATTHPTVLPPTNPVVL
T1 sequence (P19793 1-462 partner): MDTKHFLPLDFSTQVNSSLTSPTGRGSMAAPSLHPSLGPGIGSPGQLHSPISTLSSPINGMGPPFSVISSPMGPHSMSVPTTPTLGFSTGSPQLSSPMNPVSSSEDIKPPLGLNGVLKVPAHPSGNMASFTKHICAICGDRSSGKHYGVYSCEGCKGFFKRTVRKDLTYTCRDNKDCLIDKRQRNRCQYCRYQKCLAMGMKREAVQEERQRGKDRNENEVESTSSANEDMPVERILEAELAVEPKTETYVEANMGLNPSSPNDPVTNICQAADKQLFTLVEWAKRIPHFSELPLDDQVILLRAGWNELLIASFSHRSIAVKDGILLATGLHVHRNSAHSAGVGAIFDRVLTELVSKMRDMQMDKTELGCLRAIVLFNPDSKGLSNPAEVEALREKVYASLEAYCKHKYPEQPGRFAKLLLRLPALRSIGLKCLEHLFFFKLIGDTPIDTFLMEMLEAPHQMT

[2] = tested on: Cabbage Looper; experiment: Insect toxicity feeding bioassay, CL; assay type: in vivo; settings: for Insect Toxicity LC50, CL: in vivo
Protocol: (§1) The compound to be evaluated was dissolved in an appropriate solvent, usually a mix of acetone, methanol, and water. Test solutions were made by serial dilution of a stock test solution with acetone, methanol, and water. Initial evaluations were made at one or more concentrations on one or more of the following insects:
(§2) Feeding bioassays were conducted in bioassay trays containing insect diet. Treatments were made by applying 50 μL of test solution to the surface of the diet in each of 5 wells. After the test solution dried, each well was infested with a single neonate larva. The trays were held for six days and then the mortality rating was determined for each treatment.

[3] = tested on: Beet Armyworm; experiment: Insect toxicity feeding bioassay, BAW; assay type: in vivo; settings: for Insect Toxicity LC50, BAW: in vivo
Protocol: as §1, §2

[4] = target: CfEcR (CDEF)/CfUSP, GST fusion protein (Choristoneura fumiferana, UniProt O77240); experiment: CfEcR (CDEF)/CfUSP GST fusion protein assay; assay type: binding
Sequence of CfEcR (CDEF)/CfUSP, GST fusion protein (O77240 entry or part of it): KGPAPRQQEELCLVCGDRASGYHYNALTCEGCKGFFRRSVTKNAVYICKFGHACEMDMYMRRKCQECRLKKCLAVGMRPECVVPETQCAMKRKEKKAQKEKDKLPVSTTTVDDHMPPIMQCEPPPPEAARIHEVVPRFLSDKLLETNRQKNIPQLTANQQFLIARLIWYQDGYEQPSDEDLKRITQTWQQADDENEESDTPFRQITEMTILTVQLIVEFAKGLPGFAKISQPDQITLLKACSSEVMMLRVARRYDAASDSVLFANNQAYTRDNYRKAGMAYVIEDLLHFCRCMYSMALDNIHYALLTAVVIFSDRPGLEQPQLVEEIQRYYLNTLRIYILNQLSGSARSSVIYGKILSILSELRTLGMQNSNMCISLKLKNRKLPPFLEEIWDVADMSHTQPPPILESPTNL
Sequence of CfEcR (CDEF)/CfUSP, GST fusion protein (O76202 whole entry, further chain, the tested form may be a part): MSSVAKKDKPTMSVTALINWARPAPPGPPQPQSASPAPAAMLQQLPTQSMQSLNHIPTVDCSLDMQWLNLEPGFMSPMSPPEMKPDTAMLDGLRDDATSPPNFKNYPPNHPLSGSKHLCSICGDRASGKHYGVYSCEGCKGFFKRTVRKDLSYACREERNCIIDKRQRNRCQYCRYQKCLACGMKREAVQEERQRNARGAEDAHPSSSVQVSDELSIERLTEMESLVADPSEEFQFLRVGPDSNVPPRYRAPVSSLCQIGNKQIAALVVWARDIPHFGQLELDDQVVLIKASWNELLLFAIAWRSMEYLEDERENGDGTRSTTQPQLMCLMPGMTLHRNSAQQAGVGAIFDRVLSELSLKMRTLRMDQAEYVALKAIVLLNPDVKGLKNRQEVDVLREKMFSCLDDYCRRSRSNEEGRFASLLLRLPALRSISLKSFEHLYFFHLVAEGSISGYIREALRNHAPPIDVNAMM

[5] = tested on: MTA (two-spotted spider mite); experiment: Insect toxicity contact bioassay, MTA; assay type: in vivo; settings: for Insect Toxicity LC50, MTA: in vivo
Protocol: as §1
(§3) Contact bioassays (green peach aphid, two-spotted spider mite, white fly) were conducted by applying a solution of the test compound to the inside surface of a Petri dish. The solution was allowed to air-dry, then each dish was infested and the larvae from each treatment were transferred to a bioassay tray. The trays were held for one to seven days, and the mortality rating was determined for each treatment.

[6] = target: T2, GAL4 DBD-CfEcR(DEF)/VP16AD-MmRXRE (Choristoneura fumiferana, UniProt O77240); experiment: 13B3 assay: luciferase reporter gene induction in stable CHO clone 13B3; assay type: cell-based; settings: for fold induction at 33.3 µM: 48 h, read-out: Fold Induction Average, 13B3 assay; for Rel Max FI, 13B3 assay: maximum fold induction relative to that of GS-E ligand
T2 construct: The wild-type D, E, and F domains from spruce budworm Choristoneura fumiferana EcR (“CfEcR-DEF”)
Procedure, shortened: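 Stable CHO clone 13B3 co-expressing GAL4 DBD-CfEcR(DEF) and VP16AD-MmRXRE with a GAL4 RE-luciferase reporter; ligands from DMSO stocks diluted 300-fold. Luciferase read by luminescence 48 h after treatment, duplicate wells averaged. Fold induction = RLU treated/RLU DMSO; EC50 from three-parameter logistic fit.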

[7] = tested on: WFN (white fly); experiment: Insect toxicity contact bioassay, WFN; assay type: in vivo; settings: for Insect Toxicity LC50, WFN: in vivo
Protocol: as §1, §3

[8] = tested on: Tobacco Budworm; experiment: Insect toxicity bioassay, TBW; assay type: in vivo; settings: for Insect Toxicity LC50, TBW: in vivo
Protocol: as §1, §2
Some of the tobacco budworm tests were conducted as follows. A test solution containing 600 ppm was made by dissolving a compound of the invention in a 1:1 acetone:methanol solution, then adding water to give a 5:5:90 acetone:methanol:water solution, and finally a surfactant was added at an equivalent of 7.37 g of surfactant per 100 L of test solution (1 ounce of surfactant per 100 gallons of test solution). Appropriate dilutions were prepared in water from the 600 ppm solution. A detached cotton leaf, Gossypium hirsutum was placed on moistened filter paper in a Petri dish (100×20 mms). The leaf was sprayed with the test solution using a rotating turntable sprayer and allowed to dry. The dish was infested with 10 first instar larvae of the tobacco budworm and covered with the lid. If the larvae were alive two days after treatment, fresh untreated cotton leaves were added. All treatments were maintained at 23.9-26.7° C. (75-80° F.) under fluorescent light in a well-ventilated room. Percent mortality was determined at four days after treatment.

[9] = target: T3, GAL4 DBD (1-147)-CfEcR(DEF)/VP16AD-βRXREF-LmUSPEF (Choristoneura fumiferana, UniProt O77240); experiment: cell-based; settings: for fold induction at 33.3 µM: 48 h, read-out: Fold Induction Average, 27-63 assay; for Rel Max FI, 27-63 assay: maximum fold induction relative to that of GS-E ligand
T3 construct: The wild-type D, E, and F domains from spruce budworm Choristoneura fumiferana EcR (“CfEcR-DEF”)
Procedure, shortened: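 CHO clone stably carrying the GAL4-DBD–spruce budworm EcR(DEF) and VP16–RXR/USP chimeric receptor with a GAL4-responsive luciferase reporter; ligand added from DMSO stock diluted 300-fold.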

[10] = tested on: Kc; experiment: Kc EC50; assay type: cell-based
[11] = tested on: Plodia; experiment: Plodia EC50; assay type: cell-based
[12] = GST fusion protein, read-out: CfEcR EC50

CCc1ccc(C(=O)NN2C(c3ccccc3)=NOC23CCCC3)cc1 [RG-120125]
EC50 [1]: 10 µM | fold induction at 33 µM [1]: 254 | Rel Max FI, Z3 assay [1]: 0.67 | Insect Toxicity LC50, CL [2]: 23 ppm | Insect Toxicity LC50, BAW [3]: 98 ppm | EC50 [4, 12]: 0.0579 µM | Insect Toxicity LC50, MTA [5]: 167 ppm | EC50 [6]: > 33.3 µM | fold induction at 33.3 µM [6]: 82.6 | Rel Max FI, 13B3 assay [6]: 0.16 | Insect Toxicity LC50, WFN [7]: 150 ppm | Insect Toxicity LC50, TBW [8]: >150 ppm | EC50 [9]: ~20 µM | fold induction at 33.3 µM [9]: 510 | Rel Max FI, 27-63 assay [9]: 0.27

CCOC(=O)CCC(=O)NN1C(c2cc(C)cc(C)c2)=NOC1(C)CC (stereo not shown) [RG-120126]
EC50 [1]: > 50 µM | fold induction at 33 µM [1]: 2.4 | Rel Max FI, Z3 assay [1]: 0.04 | Insect Toxicity % control @ 150 ppm, CL ([2]; 150 ppm): 0% @ 150 | Insect Toxicity % control @ 150 ppm, BAW ([3]; 150 ppm): 0% @ 150 | EC50 [4, 12]: 0.136 µM | Insect Toxicity % control @ 150 ppm, MTA [5]: 0% @ 150 | EC50 [6]: > 33.3 µM | fold induction at 33.3 µM [6]: 0.4 | Rel Max FI, 13B3 assay [6]: 0 | Insect Toxicity % control @ 150 ppm, WFN [7]: 79% @ 150 | Insect Toxicity % control @ 150 ppm, TBW ([8]; 150 ppm): 0% @ 150

COc1cccc(C(=O)NN2C(c3ccccc3)=NOC2(C)C)c1C [RG-120042, N-(5,5-dimethyl-3-phenyl-[1,2,4]oxadiazol-4-yl)-3-methoxy-2-methyl-benzamide]
fold induction at 33 µM [1]: 19.3 | EC50 [10]: 29 µM | EC50 [11]: 0.481 µM | fold induction at 33.3 µM [6]: 3.3 | melting point: 141 to 142 °C | EC50 [9]: > 33 µM | Rel Max FI, 27-63 assay [9]: 0

CCc1c(OC)cccc1C(=O)NN1C(c2cc(C)cc(C)c2)=NOC1(C)CC (stereo not shown) [RG-120069]
EC50 [1]: 1.68 µM | Rel Max FI, Z3 assay [1]: 0.8 | Insect Toxicity LC50, CL [2]: 4.7 ppm | Insect Toxicity LC50, BAW [3]: 4.7 ppm | EC50 [4]: 0.0142 µM | Insect Toxicity LC50, MTA [5]: 146 ppm | EC50 [6]: 2.95 µM | fold induction at 33.3 µM [6]: 478 | Rel Max FI, 13B3 assay [6]: 1.02 | Insect Toxicity LC50, WFN [7]: >150 ppm | Insect Toxicity LC50, TBW [8]: >150 ppm | EC50 [9]: 3.31 µM | fold induction at 33.3 µM [9]: 1870 | Rel Max FI, 27-63 assay [9]: 1.11

CCC1(C)ON=C(c2cc(C)cc(C)c2)N1NC(=O)c1cc2ccccc2s1 (stereo not shown) [RG-120161]
EC50 [1]: 2.14 µM | Rel Max FI, Z3 assay [1]: 0.08 | Insect Toxicity LC50, CL [2]: 17 ppm | Insect Toxicity LC50, BAW [3]: 87 ppm | EC50 [4]: 0.0624 µM | Insect Toxicity LC50, MTA [5]: 110 ppm | EC50 [6]: 3.46 µM | fold induction at 33.3 µM [6]: 59.9 | Rel Max FI, 13B3 assay [6]: 0.14 | Insect Toxicity LC50, WFN [7]: >150 ppm | Insect Toxicity LC50, TBW [8]: >150 ppm

CCc1ccc(C(=O)NN2C(c3cc(C)cc(C)c3)=NOC2(C)C)cc1 [RG-120060]
fold induction at 33 µM [1]: 108 | Insect Toxicity LC50, CL [2]: 47 ppm | Insect Toxicity LC50, BAW [3]: 23 ppm | Kd ([4]; GST fusion protein, read-out: CfEcR Kd): 0.038 µM | Insect Toxicity % control @ 150 ppm, MTA [5]: 0% @ 150 | fold induction at 33.3 µM [6]: 16.8 | Insect Toxicity % control @ 150 ppm, WFN [7]: 0% @ 150 | Insect Toxicity LC50, TBW [8]: >150 ppm | EC50 [9]: > 33 µM | Rel Max FI, 27-63 assay [9]: 0.01

CCc1ccc(C(=O)NN2C(c3cc(C)cc(C)c3)=NOC2(C)CC)cc1 (stereo not shown) [RG-120128]
fold induction at 33 µM [1]: 403 | Insect Toxicity LC50, CL [2]: 17 ppm | Insect Toxicity LC50, BAW [3]: 47 ppm | EC50 [4]: 0.0285 µM | Insect Toxicity LC50, MTA [5]: >150 ppm | fold induction at 33.3 µM [6]: 129 | Insect Toxicity LC50, WFN [7]: >150 ppm | Insect Toxicity LC50, TBW [8]: >150 ppm | EC50 [9]: ~20 µM | fold induction at 33.3 µM [9]: 338 | Rel Max FI, 27-63 assay [9]: 0.18

CCc1c(OC)cccc1C(=O)NN1C(c2ccccc2)=NOC1(C)CC (stereo not shown) [RG-120076]
EC50 [1]: 12.4 µM | fold induction at 33 µM [1]: 0.2 | Rel Max FI, Z3 assay [1]: 0.9 | Insect Toxicity LC50, CL [2]: 47 ppm | Insect Toxicity LC50, BAW [3]: 47 ppm | EC50 [4]: 0.00835 µM | Insect Toxicity LC50, MTA [5]: 92 ppm | EC50 [6]: > 33.3 µM | fold induction at 33.3 µM [6]: 20.2 | Rel Max FI, 13B3 assay [6]: 0.05 | Insect Toxicity LC50, WFN [7]: >150 ppm | Insect Toxicity LC50, TBW [8]: >150 ppm | EC50 [9]: ~20 µM | fold induction at 33.3 µM [9]: 4090 | Rel Max FI, 27-63 assay [9]: 1.4

CCc1c(OC)cccc1C(=O)NN1C(c2cc(C)cc(C)c2)=NOC1(C)C [RG-120080, N-[3-(3,5-dimethyl-phenyl)-5,5-dimethyl-[1,2,4]oxadiazol-4-yl]-2-ethyl-3-methoxy-benzamide]
EC50 [1]: 3.95 µM | fold induction at 33 µM [1]: 310 | Rel Max FI, Z3 assay [1]: 0.71 | Insect Toxicity LC50, CL [2]: 47 ppm | Insect Toxicity LC50, BAW [3]: 23 ppm | Kd [4]: 0.0119 µM | Insect Toxicity % control @ 150 ppm, MTA [5]: 0% @ 150 | EC50 [6]: 12.3 µM | fold induction at 33.3 µM [6]: 717 | Rel Max FI, 13B3 assay [6]: 1.04 | Insect Toxicity % control @ 150 ppm, WFN [7]: 0% @ 150 | Insect Toxicity LC50, TBW [8]: >150 ppm | EC50 [9]: 8.35 µM | Rel Max FI, 27-63 assay [9]: 1.29
